Measurements from patent publication US20240327411A1, “SIRT6 ACTIVATORS” (The Board of Regents of The University of Texas System, priority 2022, published 2024).
Where “and” joins values, the source holds several entries; their conditions need not be identical. Identical values can stand only once.

Biological target: Sirt6 (Homo sapiens, UniProt Q8N6T7)
Experiment: Sirt6-dependent peptide deacetylation, FLUOR DE LYS / Sirt6 fluorometric activity kit
Assay type: biochemical
Conditions: mean ± SD, at least two independent experiments; for Activation Fold 100 μM: compound at 100 μM; for Activation Fold 30 μM: compound at 30 μM
Protocol: Sirt6/Sirt1/Sirt2/Sirt3 activity was tested by Activity Assay Kits (Abcam) according to the manufacturer's instruction with minor modification. […] All experiments were conducted at room temperature.

Sirt6, sequence (Q8N6T7 whole entry): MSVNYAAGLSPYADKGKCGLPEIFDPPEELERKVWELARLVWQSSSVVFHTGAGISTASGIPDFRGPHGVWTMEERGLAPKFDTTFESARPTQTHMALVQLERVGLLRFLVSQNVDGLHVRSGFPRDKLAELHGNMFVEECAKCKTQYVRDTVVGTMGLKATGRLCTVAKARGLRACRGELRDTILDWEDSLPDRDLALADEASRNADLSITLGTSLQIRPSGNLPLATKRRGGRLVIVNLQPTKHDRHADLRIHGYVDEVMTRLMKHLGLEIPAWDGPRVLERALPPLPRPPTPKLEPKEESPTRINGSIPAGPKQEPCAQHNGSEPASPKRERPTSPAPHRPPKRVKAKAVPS

SMILES	Activation Fold 100 μM	Activation Fold 30 μM
FC1(F)CCN(c2ncccc2C2Nc3ccccc3-n3cccc32)CC1 (stereo not drawn) [Compound 25, 4-(2-(4,4-Difluoropiperidin-1-yl)pyridin-3-yl)-4,5-dihydropyrrolo[1,2-a]quinoxaline]	~2 fold and 1.54 ± 0.03 fold	
CN(C)C(=O)CN1CCN(c2ncccc2C2Nc3ccccc3-n3cccc32)CC1 (stereo not drawn) [Compound 39, 2-(4-(3-(4,5-Dihydropyrrolo[1,2-a]quinoxalin-4-yl)pyridin-2-yl)piperazin-1-yl)-N,N-dimethylacetamide]	6.60 ± 0.22 fold	3.21 ± 0.06 fold
CN(C)CC(=O)N1CCN(c2ncccc2C2Nc3ccccc3-n3cccc32)CC1 (stereo not drawn) [Compound 43, 1-(4-(3-(4,5-Dihydropyrrolo[1,2-a]quinoxalin-4-yl)pyridin-2-yl)piperazin-1-yl)-2-(dimethylamino)ethan-1-one]	3.78 ± 0.15 fold	2.31 ± 0.07 fold
O=C1CCCN1CCN1CCN(c2ncccc2C2Nc3ccccc3-n3cccc32)CC1 (stereo not drawn) [Compound 48, 1-(2-(4-(3-(4,5-Dihydropyrrolo[1,2-a]quinoxalin-4-yl)pyridin-2-yl)piperazin-1-yl)ethyl)pyrrolidin-2-one]	5.64 ± 0.43 fold	3.48 ± 0.02 fold
NC(=O)CN1CCN(c2ncccc2C2Nc3ccccc3-n3cccc32)CC1 (stereo not drawn) [Compound 41, 2-(4-(3-(4,5-Dihydropyrrolo[1,2-a]quinoxalin-4-yl)pyridin-2-yl)piperazin-1-yl)acetamide]	3.43 ± 0.48 fold	1.73 ± 0.12 fold
O=C(CCl)N1CCN(c2ncccc2C2Nc3ccccc3-n3cccc32)CC1 (stereo not drawn) [Compound 42, 2-Chloro-1-(4-(3-(4,5-dihydropyrrolo[1,2-a]quinoxalin-4-yl)pyridin-2-yl)piperazin-1-yl)ethan-1-one]	2.84 ± 0.28 fold	1.93 ± 0.02 fold
CN(C)CCN1CCN(c2ncccc2C2Oc3ccccc3-n3cccc32)CC1 (stereo not drawn) [Compound 66, 2-(4-(3-(4H-Benzo[b]pyrrolo[1,2-d][1,4]oxazin-4-yl)pyridin-2-yl)piperazin-1-yl)-N,N-dimethylethan-1-amine]	4.23 fold and 4.23 ± 0.22 fold	2.67 fold and 2.67 ± 0.01 fold
COCCCN1CCN(c2ncccc2C2Nc3ccccc3-n3cccc32)CC1 (stereo not drawn) [Compound 37, 4-(2-(4-(3-Methoxypropyl)piperazin-1-yl)pyridin-3-yl)-4,5-dihydropyrrolo[1,2-a]quinoxaline]	5.02 ± 0.25 fold	3.13 ± 0.14 fold
CN(C)CCN1CCN(c2ncccc2C2Oc3cc(CO)ccc3-n3cccc32)CC1 (stereo not drawn) [Compound 72, (4-(2-(4-(2-(Dimethylamino)ethyl)piperazin-1-yl)pyridin-3-yl)-4H-benzo[b]pyrrolo[1,2-d][1,4]oxazin-7-yl)methanol]	2.69 fold and 2.69 ± 0.03 fold	1.59 ± 0.03 fold
COc1ccc2c(c1)-n1cccc1C(c1cccnc1N1CCN(CCN(C)C)CC1)O2 (stereo not drawn) [Compound 69, 2-(4-(3-(8-Methoxy-4H-benzo[b]pyrrolo[1,2-d][1,4]oxazin-4-yl)pyridin-2-yl)piperazin-1-yl)-N,N-dimethylethan-1-amine]	5.65 ± 0.22 fold	4.51 ± 0.06 fold
c1ccc2c(c1)NC(c1cccnc1N1CCN(CCN3CCOCC3)CC1)c1cccn1-2 (stereo not drawn) [Compound 49, 4-(2-(4-(3-(4,5-Dihydropyrrolo[1,2-a]quinoxalin-4-yl)pyridin-2-yl)piperazin-1-yl)ethyl)morpholine]	5.99 ± 0.21 fold	3.02 ± 0.04 fold
c1ccc2c(c1)NC(c1cccnc1N1CCC1)c1cccn1-2 (stereo not drawn) [Compound 16, 4-(2-(Azetidin-1-yl)pyridin-3-yl)-4,5-dihydropyrrolo[1,2-a]quinoxaline]	1.38 ± 0.11 fold	
N#CCN1CCN(c2ncccc2C2Nc3ccccc3-n3cccc32)CC1 (stereo not drawn) [Compound 40, 2-(4-(3-(4,5-Dihydropyrrolo[1,2-a]quinoxalin-4-yl)pyridin-2-yl)piperazin-1-yl)acetonitrile]	4.74 ± 0.26 fold	2.37 ± 0.04 fold
CN1C[C@@H]2CN(c3ncccc3C3Nc4ccccc4-n4cccc43)C[C@@H]2C1 (stereo partly drawn) [Compound 20, 4-(2-((3aR,6aS)-5-Methylhexahydropyrrolo[3,4-c]pyrrol-2(1H)-yl)pyridin-3-yl)-4,5-dihydropyrrolo[1,2-a]quinoxaline]	4.24 ± 0.04 fold	2.00 ± 0.11 fold
CN1CCN(c2ncccc2C2Nc3ccccc3-n3cccc32)CC1 (stereo not drawn) [Compound 21, 4-(2-(4-Methylpiperazin-1-yl)pyridin-3-yl)-4,5-dihydropyrrolo[1,2-a]quinoxaline]	4.62 fold and 4.62 ± 0.12 fold	2.44 fold and 2.44 ± 0.04 fold
O=S1(=O)CCN(c2ncccc2C2Nc3ccccc3-n3cccc32)CC1 (stereo not drawn) [Compound 26, 4-(3-(4,5-Dihydropyrrolo[1,2-a]quinoxalin-4-yl)pyridin-2-yl)thiomorpholine 1,1-dioxide]	~2 fold and 2.24 ± 0.09 fold	1.32 ± 0.01 fold

SMILES	Activation Fold 100 μM	Activation Fold 30 μM
COC(=O)c1ccc2c(c1)OC(c1cccnc1N1CCN(CCN(C)C)CC1)c1cccn1-2 (stereo not drawn) [Compound 71, Methyl 4-(2-(4-(2-(dimethylamino)ethyl)piperazin-1-yl)pyridin-3-yl)-4H-benzo[b]pyrrolo[1,2-d][1,4]oxazine-7-carboxylate]	4.82 ± 0.14 fold	4.16 ± 0.18 fold
Clc1ncccc1C1Nc2ccccc2-n2cccc21 (stereo not drawn) [Compound 14, 4-(2-Chloropyridin-3-yl)-4,5-dihydropyrrolo[1,2-a]quinoxaline]	1.04 ± 0.02 fold	
OC1CCN(c2ncccc2C2Nc3ccccc3-n3cccc32)CC1 (stereo not drawn) [Compound 27, 1-(3-(4,5-Dihydropyrrolo[1,2-a]quinoxalin-4-yl)pyridin-2-yl)piperidin-4-ol]	~2 fold and 2.38 ± 0.15 fold	1.29 ± 0.05 fold
c1ccc2c(c1)NC(c1cccnc1N1CCCC1)c1cccn1-2 (stereo not drawn) [Compound 18, 4-(2-(Pyrrolidin-1-yl)pyridin-3-yl)-4,5-dihydropyrrolo[1,2-a]quinoxaline]	1.22 ± 0.03 fold	
CN(C)CCN1CCN(c2ccccc2C2Nc3ccccc3-n3cccc32)CC1 (stereo not drawn) [Compound 63, 2-(4-(2-(4,5-Dihydropyrrolo[1,2-a]quinoxalin-4-yl)phenyl)piperazin-1-yl)-N,N-dimethylethan-1-amine]	5.43 fold and 5.43 ± 0.21 fold	2.62 fold and 2.62 ± 0.34 fold
CC(=O)N1CCN(c2ncccc2C2Nc3ccccc3-n3cccc32)CC1 (stereo not drawn) [Compound 22, 1-(4-(3-(4,5-Dihydropyrrolo[1,2-a]quinoxalin-4-yl)pyridin-2-yl)piperazin-1-yl)ethan-1-one]	2.74 fold and 2.74 ± 0.10 fold	1.60 ± 0.01 fold
CN1CCCN(c2ncccc2C2Nc3ccccc3-n3cccc32)CC1 (stereo not drawn) [Compound 19, 4-(2-(4-Methyl-1,4-diazepan-1-yl)pyridin-3-yl)-4,5-dihydropyrrolo[1,2-a]quinoxaline]	4.23 ± 0.06 fold	2.18 ± 0.02 fold
CN(C)CCN1CCN(c2ncccc2C2Oc3ccc(F)cc3-n3cccc32)CC1 (stereo not drawn) [Compound 70, 2-(4-(3-(8-Fluoro-4H-benzo[b]pyrrolo[1,2-d][1,4]oxazin-4-yl)pyridin-2-yl)piperazin-1-yl)-N,N-dimethylethan-1-amine]	2.53 fold and 2.53 ± 0.05 fold	1.84 ± 0.04 fold
c1ccc2c(c1)NC(c1cccnc1N1CCN(CCN3CCC3)CC1)c1cccn1-2 (stereo not drawn) [Compound 45, 4-(2-(4-(2-(Azetidin-1-yl)ethyl)piperazin-1-yl)pyridin-3-yl)-4,5-dihydropyrrolo[1,2-a]quinoxaline]	5.85 ± 0.01 fold	2.81 ± 0.01 fold
c1ccc2c(c1)NC(c1cccnc1N1CCC(N3CCCC3)CC1)c1cccn1-2 (stereo not drawn) [Compound 29, 4-(2-(4-(Pyrrolidin-1-yl)piperidin-1-yl)pyridin-3-yl)-4,5-dihydropyrrolo[1,2-a]quinoxaline]	3.44 fold and 3.44 ± 0.07 fold	1.89 ± 0.01 fold
CN(C)c1ncccc1C1Nc2ccccc2-n2cccc21 (stereo not drawn) [Compound 15, 3-(4,5-Dihydropyrrolo[1,2-a]quinoxalin-4-yl)-N,N-dimethylpyridin-2-amine]	1.08 ± 0.09 fold	
CN(C)CCN1CCN(c2ncccc2C2Oc3ccccc3-n3c2ccc3C(F)(F)F)CC1 (stereo not drawn) [Compound 76, N,N-Dimethyl-2-(4-(3-(1-(trifluoromethyl)-4H-benzo[b]pyrrolo[1,2-d][1,4]oxazin-4-yl)pyridin-2-yl)piperazin-1-yl)ethan-1-amine]	4.20 ± 0.06 fold	2.69 ± 0.02 fold
Cc1ccc2c(c1)-n1cccc1C(c1cccnc1N1CCN(CCN(C)C)CC1)O2 (stereo not drawn) [Compound 68, N,N-Dimethyl-2-(4-(3-(8-methyl-4H-benzo[b]pyrrolo[1,2-d][1,4]oxazin-4-yl)pyridin-2-yl)piperazin-1-yl)ethan-1-amine]	4.56 ± 0.04 fold	2.99 ± 0.05 fold
CS(=O)(=O)N1CCN(c2ncccc2C2Nc3ccccc3-n3cccc32)CC1 (stereo not drawn) [Compound 23, 4-(2-(4-(Methylsulfonyl)piperazin-1-yl)pyridin-3-yl)-4,5-dihydropyrrolo[1,2-a]quinoxaline]	3.63 fold and 3.63 ± 0.10 fold	2.03 ± 0.02 fold
O=C(N1CCN(c2ncccc2C2Nc3ccccc3-n3cccc32)CC1)N1CC(O)C1 (stereo not drawn) [Compound 44, (4-(3-(4,5-Dihydropyrrolo[1,2-a]quinoxalin-4-yl)pyridin-2-yl)piperazin-1-yl)(3-hydroxyazetidin-1-yl)methanone]	5.26 fold and 5.26 ± 0.13 fold	2.67 fold and 2.67 ± 0.19 fold
